Patent publication US20060234919A1, “Use” (priority 2001, published 2006)

Columns and labels:
[1] = system: carrageenan induced edema; test: carrageenan induced edema of the rat hindpaw (plethysmometer); assay type: in vivo; conditions: for carrageenan induced edema, percentage increase in hindpaw volume: 10 mg/kg i.m.
Description: Male Sprague-Dawley rats (260-300 g for s.c. injected and 340-380 g for i.c.v. injected) were used (B&K Universal A B, Sollentuna, Sweden). The animals arrived at least one week before experiments and were housed three-four per cage (except animals provided with i.c.v. cannulas that were housed individually) with free access to food (R36, Ewos, Södertälje, Sweden) and water. The light schedule was a 12/12 h light/dark cycle, and ambient temperature was 20±2° C.
Oxytocin and the oxytocin antagonist (1-deamino-2-D-Tyr-(OEt)-4-Thr-8-Orn-oxytocin) (Ferring, Malmö, Sweden) were dissolved in physiological saline and injected in a volume of 1 ml/kg s.c. in the dorsal neck. Dexamethasone (Decadron®, Merck, Sharp & Dome, USA) was administered intramuscularly (i.m.). Oxytocin given i.c.v. was dissolved in a volume of 5 μl physiological saline and slowly injected over a period of 1 minute through the i.c.v. guide cannula via a 25 G stain-less-steel injection needle connected to a 10 μl Hamilton syringe via a polyethylene tube. Controls received saline in the same amounts.
The model of inflammation used, the carrageenan induced edema, is a commonly used model for studies of inflammation and for testing novel anti-inflammatory drugs (Winter C A, Risley E A, Nuss G W. Carrageenan-induced edema in hind paw of the rat as an assay for anti-inflammatory drugs. Proc Soc Exp Biol Med 1962; 111:544-7). To produce acute inflammation, carrageenan, 2 mg in 0.1 ml saline, was injected s.c. into the plantar region of the rat right hindpaw.
The rats were treated s.c. with oxytocin (1.0, 10, 100 or 1000 μg/kg (n=8 in each group) or saline (n=8+8) immediately before the carrageenan injection. The edema of the right hindpaw was measured (volume in ml) using a plethysmometer (Ugo Basile, type 7150, Florence, Italy) before treatment, half an hour after, one hour after, and then every hour up to 6 or 10 hours after treatment.
The results are presented as means±SD. Statistical analysis was performed by means of a 1-way ANOVA, followed by Fisher's test for post-hoc comparisons. In the analysis of myeloperoxidase accumulation, a Student's t-test was used. P-values of 0.05 or less were regarded as statistically significant.
The rats were treated s.c. with oxytocin (1000 μg/kg) and the oxytocin antagonist (1000 μg/kg) (the antagonist was given 30 minutes before oxytocin) (n=8), the oxytocin antagonist alone (1000 μg/kg) (n=8) or saline (n=8) immediately before the carrageenan injection. Measurements as in Example 1.
The rats were treated i.c.v. with oxytocin (1.0 μg/kg) (n=6) or saline (n=7) immediately before the carrageenan injection. Measurements as in Example 1. The animals were anaesthetised with sodiumpentobarbital (50 mg/kg) (Apoteksbolaget, Sweden) injected intraperitoneally (i.p.). The scull was uncovered, a hole was drilled in the right parietal bone and a guide cannula (21 G) was fixed stereotactically to the scull by means of acrylic dental cement. The coordinates were 1.00 mm posterior and 1.30 mm lateral to the bregma. […] The injection needles (25 G) reached 3.80 mm below the dura mater, with the tip of the needle in the right lateral ventricle. The animals were allowed one week of recovery after the operation. At the end of the experiment, the placement of the guide cannula was checked by injection of 2 μl of toluidine blue.
The rats were treated i.m. with dexamethasone (10 mg/kg) (n=6) or saline (n=6) immediately before the carrageenan injection. The edema of the right hindpaw was measured using the plethysmometer before treatment, and at 2, 4 and 6 hours after treatment.

[2] = system: ischaemic musculocutaneous skin flaps; conditions: antagonist 1 mg/kg s.c.; previously shown by the inventors; cited from earlier work

Row | Compound | abolition of the oxytocin (1000 μg/kg s.c.) induced effect on carrageenan induced edema ([1]; antagonist 1000 μg/kg s.c. 30 minutes before oxytocin) | effect on carrageenan induced edema ([1]; antagonist 1000 μg/kg s.c. administered alone) | antagonism of the oxytocin (1 mg/kg s.c.) effect on skin flap survival [2] | carrageenan induced edema, percentage increase in hindpaw volume ([1]; 2 hours, saline 48±10%, p<0.05) [%] | carrageenan induced edema, percentage increase in hindpaw volume ([1]; 4 hours, saline 78±12%, p<0.05) [%] | carrageenan induced edema, percentage increase in hindpaw volume ([1]; 6 hours, saline 105±11%, p<0.01) [%]
1 | 1-deamino-2-D-Tyr-(OEt)-4-Thr-8-Orn-oxytocin [oxytocin antagonist] | did not abolish | did not induce any effect | abolished |  |  | 
2 | C[C@@H]1C[C@H]2[C@@H]3CCC4=CC(=O)C=C[C@]4(C)[C@@]3(F)[C@@H](O)C[C@]2(C)[C@@]1(O)C(=O)CO [Dexamethasone] |  |  |  | 35±9.3 | 54±14 | 71±15
